Test results: article PMC9981671, “rRNA methylation by Spb1 regulates the GTPase activity of Nog2 during 60S ribosomal subunit assembly” (Nature Communications, 2023)

Biological target: Nog2 (Saccharomyces cerevisiae, UniProt P53742)
Assay: cryo-EM structure of native pre-60S particle, […] A
Type: binding
Conditions: Nog2pre from spb1 D52A strain (unmethylated G2922); GTPase site with Mg2+ and K+; pH 8.0; also Nog2post (7UUI) and Nog2pre from spb1 D52A/E769K strain (7V08)

Chain of Nog2 (P53742 whole entry): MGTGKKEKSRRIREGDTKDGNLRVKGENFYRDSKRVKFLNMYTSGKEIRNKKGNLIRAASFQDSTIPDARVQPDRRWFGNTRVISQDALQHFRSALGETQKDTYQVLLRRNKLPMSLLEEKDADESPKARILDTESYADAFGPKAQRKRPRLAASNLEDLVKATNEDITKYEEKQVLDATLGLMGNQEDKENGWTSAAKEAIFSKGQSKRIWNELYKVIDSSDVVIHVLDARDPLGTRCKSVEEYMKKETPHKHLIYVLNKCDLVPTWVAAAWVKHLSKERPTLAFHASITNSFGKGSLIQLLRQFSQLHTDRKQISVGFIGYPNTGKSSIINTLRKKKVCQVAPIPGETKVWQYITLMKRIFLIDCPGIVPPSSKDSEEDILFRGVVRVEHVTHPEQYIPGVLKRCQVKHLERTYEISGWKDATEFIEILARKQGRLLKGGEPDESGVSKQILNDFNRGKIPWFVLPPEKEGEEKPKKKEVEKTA

Structure (SMILES): Nc1nc2c(ncn2[C@@H]2O[C@H](COP(=O)(O)OP(=O)(O)O)[C@@H](O)[C@H]2O)c(=O)[nH]1 [GDP]
- cryo-EM structure of native pre-60S particle, 2.4 A: GTP hydrolysis has taken place and that GDP occupies the Nog2 active site
